pIC50: −log10 of the molar value.
Tests used:
Assay type in all cases: functional, cell-based
[1] = Cytotoxicity against human multidrug-resistant KB/VJ300 cells in presence of 0.12 uM vincristine
KB = test: Cytotoxicity against human KB cells
[2] = Cytotoxicity against human KB/VJ300 cells

COC(=O)C1=C[C@@]23CCCN4CC[C@@]5(c6ccccc6N[C@]15CC2)[C@@H]43 [KOPSIJASMININE]
pIC50 [1]: 4.41

CC[C@]1(O)C[C@H]2CN(CCc3c([nH]c4ccccc34)[C@@](C(=O)OC)(c3cc4c(cc3OC)N(C=O)[C@H]3[C@@](O)(C(=O)OC)[C@H](OC(C)=O)[C@]5(CC)C=CCN6CC[C@]43[C@@H]65)C2)C1 [VINCRISTINE]
pIC50 (KB): 7.78 | pIC50 [2]: 5.87
